According to US12622896B2, “Antiviral compounds, compositions and methods of use” (THE UNIVERSITY OF BRITISH COLUMBIA, priority 2019, dated 2026):
Where “and” joins values, the source holds several entries; their conditions need not be identical. Equal entries are not always repeated. Where two headings read alike, the source gives them in different places.

Tests used:
PBMCs = experiment: PBMC viability by ViaCount assay over 11 days; assay type: cell-based, human; conditions: up to 11 days
adenovirus (Ad5) HAdV-C5 = experiment: Adenovirus infection assay in A549 cells, virus yield by end-point dilution; assay type: cell-based; conditions: 0 to 20 μM, 24 h, viral titres, read-out: IC50 against adenovirus
A549 cells = experiment: A549 toxicity, trypan blue and Alamar Blue; assay type: cell-based; conditions: 24 hr
adenovirus genome = experiment: Adenovirus viral DNA replication by qPCR in A549 cells; assay type: cell-based; conditions: 2.5 μM
Description: For adenovirus DNA analysis, cells were seeded on 6 cm plates at a density of 1×10^6 cells per plate. The next day, cells were infected with HAdV-C5 (MOI 100) for 1 h, inoculum was removed and replaced with medium containing DMSO or GPS491 (2.5 μM). At the indicated times post-infection, cells were collected and washed in 1×PBS. Cells were lysed using 200 uL lysis buffer (10 mM Tris-HCl [pH 8.0], 75 mM NaCl, 0.1% SDS, 0.5% NP-40, 0.5% Tween 20, 0.5 mg/ml proteinase K) at 56° C. for 4 to 5 h and the mixture was boiled for 15 min. Samples were centrifuged at 13000×g and supernatant was collected. All samples from a given experiment were processed at the same time. Adenovirus DNA levels were determined by qPCR as previously detailed in Grosso F. et al. (2017). J Virol. 91(3):e01623-16.
To assess whether the altered pattern of E1A expression could be attributed to changes in viral RNA accumulation or splicing, RT-PCR analysis was performed. The E1A transcript is the first viral RNA generated upon adenovirus infection and can be processed into three different mRNAs by alternative splicing; designated 13S, 12S, and 9S as shown in FIG. 20(A). The abundance of the different E1A RNA isoforms fluctuates over the course of adenovirus infection; 13S and 12S predominating at early times p.i., while 9S is the major E1A RNA at later times. […]

Huh7 cell line = conditions: 24 hr, Alamar Blue
HIV-1Bal strain = experiment: PBMC infection assay, p24Gag ELISA day 11, HIV-1BaL; conditions: read-out: EC50 against HIV-1Bal in PBMC; three separate donors, one value per donor; p24 day 11; listed as GPS491
[1] = system: Maraviroc-resistant variant of HIV-1BaL; experiment: Anti-HIV assay against Maraviroc-resistant R5 strain; conditions: Human immunodeficiency virus 1, read-out: EC50 against Maraviroc-resistant HIV-1 strain
Description: (§1) The anti-HIV activity of the compounds was measured by a human T-cell reporter assay based on CEM-GXR cells. These cells express GFP due to the activation of the tat-dependent promoter upon HIV-1 infection, and the level of infection was monitored using Flow cytometric analysis (Guavasoft 2.2™ software, Guava HT8, Millipore™). Antiviral activity was evaluated in an assay that measures the inhibition of HIV-1 spread in a co-culture of CEM-GXR cells containing one percent of HIV-1 infected (GFP positive) cells.
(§2) This Maraviroc-resistant variant derived from a R5 strain of HIV-1BaL contains five mutations within the envelope V3 loop: A19T, L20F, T22A, E25D, and I26V.

HIV-1 IIIB strain = experiment: PBMC infection assay, p24Gag ELISA day 11, HIV-1 IIIB; conditions: p24 day 11
HIV-1 Env, Tat and Gag = experiment: Western blot of viral protein levels in HeLa B2 cells; conditions: increasing concentrations 250 nM to 2.5 μM, 24 h
[2] = system: (N)NRTI-resistant isolate (E00443); experiment: Anti-HIV assay against (N)NRTI-resistant isolate E00443; conditions: Human immunodeficiency virus 1, read-out: EC50 against isolate E00443
Description: as §1

[3] = system: clinical isolate (11845 INI); experiment: Anti-HIV assay against INI-resistant clinical isolate 11845; conditions: Human immunodeficiency virus 1, read-out: EC50 against 11845 clinical isolate
Description: as §1, §2

SRSF9 = experiment: SR protein abundance by Western blot in HeLa rtTA HIVΔmls cells: SRSF9; conditions: 2.5 μM, 24 h, relative to DMSO
Description: (§3) After 24 h of treatment, cells were harvested in 1×PBS, 2 mM EDTA and cell pellet resuspended in RIPA buffer. […] To assess effects on SR protein expression, cells were harvested in RIPA buffer containing phosphatase inhibitors and lysates fractionated on StainFree™ SDS-PAGE gels. Western blots were probed with one of the following antibodies: mouse α-SRSF1 (Life Technologies™, Cat: 32-4500), rabbit α-SRSF2 (BD Pharmingen™, Cat: 556363), mouse α-SRSF3 (Life Technologies™, Cat: 33-4200), rabbit α-SRSF4 (Novus Biologicals™, Cat: 2-04144), rabbit α-SRSF5 (MBL, RN082PW), rabbit α-SRSF6 (Novus Biologicals™, Cat: NBP2-04142), rabbit α-SRSF7 (Abcam™, Cat: ab137247), and rabbit α-SRSF9 (MBL, Cat: RN081PW), rabbit α-Tra2p (Abcam™, Cat: ab31353), and rabbit α-GAPDH (Sigma™, Cat: G9545). The following secondary antibodies were used: α-mouse, horseradish peroxidase (HRP)-conjugated IgG (Jackson Immunoresearch Laboratories™, Cat: 715-036-150) or α-rabbit, HRP-conjugated IgG (Jackson Immunoresearch Laboratories™, Cat: 711-036-152). […] Quantification of the relative intensity of the detected bands was done using ImageLab software and normalized to corresponding bands of the loading control (GAPDH, tubulin, or total protein).
(§4) Briefly, cell lysates from HeLa rtTA HIVΔmls cells treated for 24 h with either DMSO or GPS491 were fractionated on SDS-PAGE gels and individual factors detected by Western blot.

SRSF6 = experiment: SR protein abundance by Western blot in HeLa rtTA HIVΔmls cells: SRSF6; conditions: 2.5 μM, 24 h, relative to DMSO
Description: as §3, §4

SRSF4 = experiment: SR protein abundance and phosphorylation by Western blot in HeLa rtTA HIVΔmls cells: SRSF4
HIV-1NL4-3 = experiment: Preliminary anti-HIV screen: CEM-GXR reporter cells co-cultured with HIV-1NL4-3 infected cells, GFP by flow cytometry; conditions: within the C-2 substituted thiophene or thiazole series
Description: as §1
The reporter CEM-GXR cells were infected by co-culture with one percent HIV-1NL4-3 infected (GFP positive) cells at the start of the assay (day 0). Individual compounds from the library was added in DMSO at varying concentrations to the culture in each microplate well immediately after the inoculation by infected cells. The final library compound concentration ranged from 1.25-10 μM and the final DMSO concentration was less than 0.1%. The percent of infected cells in the culture was determined by flow cytometry on day 3 using GFP expression as a readout.

## O=C(Nc1nc2ccc(C(F)(F)F)cc2s1)c1cnc(C(F)(F)F)s1 [12c, 2-(trifluoromethyl)-N-(6-(trifluoromethyl)benzo[d]thiazol-2-yl)thiazole-5-carboxamide]
PBMCs; 1 μM
  cellular toxicity in PBMCs at 1 μM: minimal toxicity
PBMCs; 0.1-10 μM range
  cellular toxicity in PBMCs: some cellular toxicity
Adenovirus (Ad5) HAdV-C5
  IC50: 1 µM
A549 cells
  toxicity against the A549 cell line: minimal toxicity
Adenovirus genome
  viral DNA accumulation: levels comparable to that observed immediately after virus addition
Huh7 cell line
  toxicity against the Huh7 cell line: minimal toxicity
HIV-1Bal strain
  EC50: 0.48 µM and 0.11 µM and 0.211 µM
[1]
  EC50: 0.216 µM
HIV-1 IIIB strain; Human immunodeficiency virus 1, IIIB, PBMC, 264 h, read-out: EC50 against HIV-1 IIIB in PBMC, three separate donors, one value per donor
  EC50: 0.655 µM
HIV-1 IIIB strain; read-out: EC50 against HIV-1 IIIB in PBMC, three separate donors, one value per donor, listed as GPS491
  EC50: 0.962 µM and 0.921 µM
HIV-1 Env, Tat and Gag
  expression of Env, Tat and Gag: reduced expression
[2]
  EC50: 0.235 µM
[3]
  EC50: 0.203 µM
SRSF9
  increase of SRSF9 level: 1.5 fold
SRSF6
  reduction of SRSF6 abundance: 50%
SRSF4; 2.5 μM, 24 h, relative to DMSO
  reduction of SRSF4 abundance: 20%
SRSF4; GPS491 vs DMSO treated samples
  SRSF4 phosphorylation (gel mobility, phosphatase treatment): increased phosphorylation
HIV-1NL4-3
  anti-HIV activity, rank within the analogue series: most active
